Measured values published in publication PMC7917659, “Selective Cytotoxicity of Complexes with N,N,N-Donor Dipodal Ligand in Tumor Cells” (International Journal of Molecular Sciences, 2021).
Entries after “also recorded” stand apart in the source; their conditions may differ. Read-outs that look alike come from different tables or passages of the source.

Experiments:
Hep G2 cells [1] = assay: Antiproliferative MTT assay, tumour cells; type: cell-based; conditions: for IC50: MTT assay, 72 h exposure, M ± SD, n = 3, read-out: IC50 for Cancer HEP G2 Cells
CHO-K1 cells [2] = assay: Antiproliferative MTT assay, noncancerous cells; type: cell-based; conditions: 72 h exposure, M ± SD, n = 3
Hep G2 cells [3] = test system: Hep G2 cells; set-up: method as in doi:10.1039/C6RA06439F; conditions: read-out: IC50 for Cancer HEP G2 Cells, cited from earlier work
Hep G2 cells [4] = assay: Apoptosis and necrosis detection by flow cytometry, tumour cells; type: cell-based; conditions: Hep G2, 50 µM/L, 24 h, Annexin V/EthD-III flow cytometry
Description: (§1) For flow cytometry analyses, CHO-K1 and Hep G2 cells were plated in triplicates into 6-well plates (Sarstedt) at a density of 2 × 10^4 cells per well. The cells were treated for 24 h with tested complexes/comparator salts at concentration of 50 µM/L. Control cells were exposed to DMSO (1% v/v)for 24 h. Then, the cells were detached using Trypsin-EDTA solution, washed with buffered PBS (Lonza, Walkersville, MD, USA), centrifuged at 350× g for 5 min and suspended in binding buffer. Flow cytometry analysis was performed according to the manufacturer’s instructions (Biotium, Hayward, CA, USA). Fluorescent dyes, 488-AnnexinV (excitation maximum at 490 nm/emission maximum at 515 nm) and/or Ethidium homodimer (EthD-III; excitation maximum at 528 nm/emission maximum at 617 nm) were added to cell suspensions. To correct discrimination between cells and debris, SYTO 41 Blue Fluorescent Nucleic Acid Stain was used (excitation maximum at […]). The cells were incubated in dark for 15 min with appropriate dye/dyes and analysed using flow cytometer FACSCanto10C with BD FACSDiva 8.1 System Software (BD Biosciences Immunocytometry Systems, San Jose, CA, USA). The cells were gated according to forward (FSC), side scatter (SSC) and fluorescence parameters (FITC channel was used for 488-AnnexinV and Texas Red channel was used for EthD-III). The results are given as the percentage of apoptotic or necrotic cells of total counted cells.

[5] = test system: matrix metalloproteinase-9 (MMP-9) mRNA; assay: Real-Time PCR (qPCR) gene expression in Hep G2 cells, MMP-9; type: cell-based, human
Description: (§2) Hep G2 cells were used to establish cell cultures (2 × 10^4 cells/well). After 24 h of incubation with chemicals at concentration of 50 µM/L or with 1% v/v DMSO (control), the cells were suspended in RL buffer (EURx, Gdansk, Poland) and the total RNA was extracted using Universal RNA purification Kit (EURx, Gdansk, Poland), according to the manufacturer’s protocol. For cDNA synthesis, MMLV reverse transcriptase (Promega, Madison, WI, USA) was used. The reverse transcription reaction was performed with ProFlex PCR System (Applied Biosystems, Foster City, CA, USA). The QuantStudio 7 Flex (Applied Biosystems, Foster City, CA, USA) was employed for the real-time PCR (qPCR). The following Taq-Man human probes (Applied Biosystems) were used for qPCR reaction: VEGFA (Hs00173626_m1), VIM (001855284_m1), MMP-2 (Hs00234422_m1), MMP-9 (Hs00234579_m1) and GAPDH (Hs99999905_m1). Blank qPCR Master Mix (EURx) was used according to the manufacturer’s instructions. Expression data were normalized on the mean housekeeping gene (GAPDH) as a reference. mRNA expressions were obtained with the 2^−ΔΔCt method and relative expression values were presented, as previously published.

[6] = test system: Glutathione Peroxidase (GPx); assay: Extracellular glutathione peroxidase activity in CHO-K1 culture medium; type: cell-based
Description: (§3) Glutathione peroxidase (GPx) activity was assayed spectrophotometrically in culture medium and enzyme function against reactive oxygen species was investigated according to Adachi et al., Comhair et al. and Howie et al. with modification of Zagrodzki, using hydrogen peroxide (H2O2) as a substrate. For experiment, cell cultures of CHO-K1 and Hep G2 cells were established with initial density of the cells as 2 × 10^4 cells/well. Then, the cells were exposed to 50 µM/L of each chemical for 24 h (control cells were incubated with 1% v/v of DMSO) and cell media were collected. Briefly, the samples were incubated with mixture of sodium azide, glutathione reductase, glutathione, reduced β-nicotinamide adenine dinucleotide phosphate (NADPH) and sodium phosphate (pH 7.6) for 2 min at 25 °C and the reaction was initiated by the addition of H2O2. NADPH was converted to NADP and the amount of the product was proportional to GPx activity. The decrease in absorbance at 340 nm over 3 min was recorded using a microplate reader Infinite M200 Pro, Tecan, Austria. The mean value was calculated and expressed as U/L of the cell culture medium.

HepG2 cells [7] = assay: Trypan blue exclusion test, tumour cells; type: cell-based; conditions: HepG2, 50 µM/L, p < 0.01 vs. control; for Viable cells vs. control (trypan blue exclusion): 24 h exposure; for Cytotoxicity / cell viability vs. control (trypan blue exclusion): 72 h exposure
Description: (§4) CHO-K1 and HepG2 cells were seeded into 6-well plates (Sarstedt, Numbrecht, Germany) at a density of 2 × 10^4 cells/well and then incubated for 24 h. The cell monolayers were washed with PBS solution (Sigma-Aldrich) and medium in each well was replaced with a new one, with addition of 50 µM/L of tested compound. Then, the cells were incubated in standard conditions for 24, 48 or 72 h. The cells cultured in the medium with addition of 1% v/v DMSO (Sigma-Aldrich) were positive controls (100% of growth). After incubation, the cells were detached using Trypsin-EDTA solution (Life Technologies) and suspended in buffered PBS (Sigma-Aldrich). Trypan Blue Exclusion dye (0.4% v/v, Sigma-Aldrich, Germany) was added to each cell culture and samples were kept at room temperature for 5 min. Then, the numbers of live cells (unstained) and dead cells (blue) in each population exposed to tested chemicals/dissolvent were measured with an automatic cell counter.

vimentin (Vim) mRNA = assay: Real-Time PCR (qPCR) gene expression in Hep G2 cells, vimentin; type: cell-based, human; conditions: Hep G2, 50 μM/L, 24 h, normalized to GAPDH
Description: as §2

[8] = test system: vascular endothelial growth factor a (VEGFa) mRNA; assay: Real-Time PCR (qPCR) gene expression in Hep G2 cells, VEGFa; type: cell-based, human; conditions: Hep G2, 50 μM/L, 24 h, normalized to GAPDH
Description: as §2

CHO-K1 cells [9] = assay: Trypan blue exclusion test, noncancerous cells; type: cell-based; conditions: CHO-K1, 50 µM/L, 24 h exposure, p < 0.05 vs. control
Description: as §4

CHO-K1 cells [10] = assay: Apoptosis and necrosis detection by flow cytometry, noncancerous cells; type: cell-based; conditions: CHO-K1, 50 µM/L, 24 h, Annexin V/EthD-III flow cytometry
Description: as §1

[11] = test system: matrix metalloproteinase-2 (MMP-2) mRNA; assay: Real-Time PCR (qPCR) gene expression in Hep G2 cells, MMP-2; type: cell-based, human
Description: as §2

[12] = test system: Glutathione Peroxidase (GPx); assay: Extracellular glutathione peroxidase activity in Hep G2 culture medium; type: cell-based; conditions: HepG2 culture medium, 50 μM/L, 24 h
Description: as §3

CHO-K1 cells [13] = conditions: read-out: IC50 for Noncancerous CHO-K1 Cells, cited from earlier work
CHO-K1 cells [14] = assay: Cell growth assessment (cell counting), noncancerous cells; type: cell-based; conditions: CHO-K1, 50 µM/L, 72 h incubation
Description: (§5) For experiments, the cells were seeded at low density (3 × 10^3/mL) into the 6-well plates (Sarstedt, Numbrecht, Germany) and kept for 24 h. Then, the medium was replaced for new one, containing 50 µM/L of tested compound or 1% v/v of DMSO (control). The time points of incubations were set at 24, 48 or 72 h. At the end of each experiment, the cells were gently detached with Trypsin-EDTA solution (Life Technologies), suspended with appropriate growth medium with addition of 10% v/v FBS and centrifuged at 350× g for 5 min. Finally, the cells were suspended in buffered PBS (Sigma-Aldrich) and counted.

HepG2 cells [15] = assay: Cell growth assessment (cell counting), tumour cells; type: cell-based; conditions: HepG2, 50 µM/L, 72 h incubation
Description: as §5

[16] = MTT assay, 72 h exposure, M ± SD
[17] = Hep G2, 50 μM/L, 24 h, normalized to GAPDH
[18] = CHO-K1 culture medium, 50 μM/L, 24 h

Row | Compound | Antiproliferative Index IC50 CHO-K1/IC50 HEP G2 (Hep G2 cells [1]; ratio of MTT IC50 values, 72 h) | IC50 (CHO-K1 cells [2]) | IC50 (Hep G2 cells [1]) | Apoptosis (Hep G2 cells [4]) | MMP-9 mRNA expression vs. control [5, 17] | GPx activity vs. control [6, 18] | Viable cells vs. control (trypan blue exclusion) (HepG2 cells [7]) | Cytotoxicity / cell viability vs. control (trypan blue exclusion) (HepG2 cells [7]) | Vim mRNA expression vs. control (vimentin (Vim) mRNA) | VEGFa mRNA expression vs. control [8] | Viable cells vs. control (trypan blue exclusion) (CHO-K1 cells [9]) | Cell death (apoptosis/necrosis) (CHO-K1 cells [10]) | MMP-2 mRNA expression vs. control [11, 17] | GPx activity vs. control [12] | Antiproliferative Index IC50 CHO-K1/IC50 HEP G2 (Hep G2 cells [1]) | Necrosis (Hep G2 cells [4]) | further results
1 | N.N.[Cl][Pt][Cl] [Cisplatin, cisplatin, reference compound] | 0.9 | 19.1 ± 2 µM | – | – | – | – | – | – | – | – | – | – | – | – | – | – | IC50 (Hep G2 cells [3]; [16]): 21.3 ± 2 µM
2 | Cc1cc(C)n(CNCn2nc(C)cc2C)n1.Cc1ccccc1.[N-]=C=S.[N-]=C=S.[O]=[V+2] [Complex 3, [VOL^D(NCS)2]∙C6H5CH3] | 2.7 | 123 ± 3 µM | 45.6 ± 5 µM | most active promotor of apoptosis | greatest inhibitory effect | did not disturb antioxidant enzyme activity | statistically significant decrease in viable cells | statistically significant toxic effect | decreased Vim expression | significantly hampered VEGFa expression | statistically significant decrease in viable cells | minor | greatest inhibitory effect | decreased GPx activity | – | – | –
3 | O=S(=O)([O-])[O-].[O]=[V+2] [VOSO4, reference compound] | 1.3 | – | 75.6 ± 8 µM | much weaker than complex 3 | did not exert any effect | – | – | – | – | – | – | – | did not exert any effect | elevated the enzyme activity | – | – | IC50 (CHO-K1 cells [13]; [16]): 98.3 ± 9 µM
4 | [Cl-].[Cl-].[Co+2] [CoCl2] | – | – | – | – | – | – | – | – | – | – | – | – | – | – | 1.1 | – | MMP-9 mRNA expression vs. control [5]: did not changed transcript level for MMP-9; GPx activity vs. control [6]: did not exert any effect; IC50 (CHO-K1 cells [13]): 176 µM; IC50 (Hep G2 cells [3]): 160 µM; MMP-2 mRNA expression vs. control [11]: decreased mRNA for MMP-2
5 | Cc1cc(C)n(CNCn2nc(C)cc2C)n1.[Co+2].[N-]=C=S.[N-]=C=S [Complex 2, [CoL^D(NCS)2]] | – | 268 ± 15 µM | 38.2 ± 5 µM | – | – | elevated the enzyme activity | statistically significant decrease in viable cells | statistically significant toxic effect | – | significantly hampered VEGFa expression | statistically significant decrease in viable cells | minor | – | – | 7.0 | caused mainly necrotic cell death | Cell growth vs. control (CHO-K1 cells [14]): lowest inhibitory potency
6 | CO.Cc1cc(C)n(CNCn2nc(C)cc2C)n1.Cc1cc(C)n(CNCn2nc(C)cc2C)n1.[Co+2].[I-].[I-] [Complex 1, [Co(L^D)2]I2∙CH3OH] | 5.5 | 122 ± 10 µM | 22 ± 4 µM | – | – | elevated the enzyme activity | statistically significant decrease in viable cells | statistically significant toxic effect; also recorded: greatest decrease in Hep G2 cell viability | decreased Vim expression | significantly hampered VEGFa expression | statistically significant decrease in viable cells | minor | – | – | – | caused mainly necrotic cell death | Cell growth vs. control (HepG2 cells [15]): greatest inhibitory effect
